Source: patent publication US10757937B2, “Sulfonamides that activate ABA receptors” (The Regents of the University of California, priority 2014, dated 2020)
Where two headings read alike, the source gives them in different places.

Assays:
Test in all cases: receptor-mediated PP2C (HAB1) inhibition in vitro assay
Type in all cases: biochemical
PYL11 = target: T1, PYL11 (Arabidopsis thaliana, UniProt Q9FJ50); conditions: for remaining activity at 50 µM: 50 uM of the test compound
T1 construct: made in house; host or cells: E. coli BL21[DE3]pLysS
T1 sequence (Q9FJ50 1-161): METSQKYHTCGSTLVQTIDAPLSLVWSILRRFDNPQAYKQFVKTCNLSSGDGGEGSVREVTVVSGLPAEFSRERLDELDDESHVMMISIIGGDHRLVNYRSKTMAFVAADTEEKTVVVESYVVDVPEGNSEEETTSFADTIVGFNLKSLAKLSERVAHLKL
T1 sequence (Q9CAJ0 23-511 partner): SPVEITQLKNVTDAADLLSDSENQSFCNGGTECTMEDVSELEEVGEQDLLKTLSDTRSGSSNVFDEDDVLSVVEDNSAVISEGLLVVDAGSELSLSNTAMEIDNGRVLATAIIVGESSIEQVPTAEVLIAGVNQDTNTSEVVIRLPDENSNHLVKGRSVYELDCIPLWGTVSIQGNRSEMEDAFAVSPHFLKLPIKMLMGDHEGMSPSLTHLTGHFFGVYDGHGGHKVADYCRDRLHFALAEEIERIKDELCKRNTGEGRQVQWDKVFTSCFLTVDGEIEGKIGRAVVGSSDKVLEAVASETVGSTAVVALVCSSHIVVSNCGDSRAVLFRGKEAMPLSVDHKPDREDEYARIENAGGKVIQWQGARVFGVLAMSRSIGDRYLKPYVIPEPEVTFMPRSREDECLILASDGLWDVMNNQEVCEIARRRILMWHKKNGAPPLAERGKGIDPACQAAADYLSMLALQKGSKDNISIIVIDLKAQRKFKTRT
Procedure, shortened: (§1)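 Compounds, tested at 25 μM or 50 uM with ABA at 10 uM, were incubated with recombinant receptor and 50 nM GST-HAB1 (2:1 ratio) in MnCl2-containing Tris-OAc buffer, pH 7.9. Phosphatase activity was followed by 4-methylumbelliferyl-phosphate fluorescence.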

PYL4 = target: T2, PYL4 (Arabidopsis thaliana, UniProt O80920); conditions: for remaining activity at 25 µM: compound at 25 μM, control without agonist = 100%; for remaining activity at 50 µM: 50 uM of the test compound
T2 construct: 6X-His; made in house; host or cells: E. coli BL21[DE3]pLysS
T2 sequence (O80920 1-207): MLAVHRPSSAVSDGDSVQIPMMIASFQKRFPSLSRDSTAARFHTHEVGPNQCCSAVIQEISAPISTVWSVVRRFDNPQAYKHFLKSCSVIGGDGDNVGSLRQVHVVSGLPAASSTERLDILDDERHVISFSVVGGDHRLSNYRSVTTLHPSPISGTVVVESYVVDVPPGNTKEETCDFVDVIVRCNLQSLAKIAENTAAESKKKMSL
T2 sequence (Q9CAJ0 23-511 partner): T1 sequence (Q9CAJ0 23-511 partner)
Procedure, shortened: as §1

PYL5 = target: T3, PYL5 (Arabidopsis thaliana, UniProt Q9FLB1); conditions: for remaining activity at 25 µM: compound at 25 μM, control without agonist = 100%; for remaining activity at 50 µM: 50 uM of the test compound
T3 construct: 6X-His; made in house; host or cells: E. coli BL21[DE3]pLysS
T3 sequence (Q9FLB1 1-203): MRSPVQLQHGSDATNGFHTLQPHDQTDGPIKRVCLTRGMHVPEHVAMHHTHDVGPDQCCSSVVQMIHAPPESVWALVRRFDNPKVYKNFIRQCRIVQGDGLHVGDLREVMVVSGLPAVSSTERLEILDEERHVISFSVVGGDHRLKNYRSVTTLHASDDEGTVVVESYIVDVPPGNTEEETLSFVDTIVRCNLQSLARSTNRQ
T3 sequence (Q9CAJ0 23-511 partner): T1 sequence (Q9CAJ0 23-511 partner)
Procedure, shortened: as §1

PYL6 = target: T4, PYL6 (Arabidopsis thaliana, UniProt Q8S8E3); conditions: for remaining activity at 50 µM: 50 uM of the test compound
T4 construct: 6X-His; made in house; host or cells: E. coli BL21[DE3]pLysS
T4 sequence (Q8S8E3 1-215): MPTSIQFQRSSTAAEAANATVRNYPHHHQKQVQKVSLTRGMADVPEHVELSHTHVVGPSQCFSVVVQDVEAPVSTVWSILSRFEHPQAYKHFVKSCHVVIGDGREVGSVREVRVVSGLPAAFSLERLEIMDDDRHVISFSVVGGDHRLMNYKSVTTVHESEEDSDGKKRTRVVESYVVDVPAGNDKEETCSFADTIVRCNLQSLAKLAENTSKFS
T4 sequence (Q9CAJ0 23-511 partner): T1 sequence (Q9CAJ0 23-511 partner)
Procedure, shortened: (§2)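 Fluorogenic readout: 4-methylumbelliferyl-phosphate hydrolysis by 50 nM GST-HAB1 plus 2:1 His-receptor; Tris-OAc pH 7.9, NaCl, 1 mM MnCl2, β-ME. Compounds at 25 μM or 50 uM single dose; IC50 from dose curves for selected compounds.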

PYL8 = target: T5, PYL8 (Arabidopsis thaliana, UniProt Q9FGM1); conditions: for remaining activity at 25 µM: compound at 25 μM, control without agonist = 100%; for remaining activity at 50 µM: 50 uM of the test compound
T5 construct: 6X-His; made in house; host or cells: E. coli BL21[DE3]pLysS
T5 sequence (Q9FGM1 1-188): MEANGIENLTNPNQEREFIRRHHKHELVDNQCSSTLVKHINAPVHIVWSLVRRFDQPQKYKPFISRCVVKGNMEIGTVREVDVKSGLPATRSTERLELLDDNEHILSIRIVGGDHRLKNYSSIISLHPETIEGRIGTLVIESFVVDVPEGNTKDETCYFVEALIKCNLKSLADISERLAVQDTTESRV
T5 sequence (Q9CAJ0 23-511 partner): T1 sequence (Q9CAJ0 23-511 partner)
Procedure, shortened: as §2

PYL9 = target: T6, PYL9 (Arabidopsis thaliana, UniProt Q84MC7); conditions: for remaining activity at 25 µM: compound at 25 μM, control without agonist = 100%; for remaining activity at 50 µM: 50 uM of the test compound
T6 construct: 6X-His; made in house; host or cells: E. coli BL21[DE3]pLysS
T6 sequence (Q84MC7 1-187): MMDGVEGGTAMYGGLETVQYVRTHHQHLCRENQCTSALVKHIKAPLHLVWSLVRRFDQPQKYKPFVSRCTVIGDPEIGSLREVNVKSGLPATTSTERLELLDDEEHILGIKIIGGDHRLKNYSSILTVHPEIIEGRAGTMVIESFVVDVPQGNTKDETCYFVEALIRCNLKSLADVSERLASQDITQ
T6 sequence (Q9CAJ0 23-511 partner): T1 sequence (Q9CAJ0 23-511 partner)
Procedure, shortened: as §2

[1] = Table VII, read-out: PP2C Dose Curves PYL11 (IC50)
[2] = Table VII, read-out: PP2C Dose Curves PYL5 (IC50)
[3] = Table VII, read-out: PP2C Dose Curves PYL6 (IC50)
[4] = Table VII, read-out: PP2C Dose Curves PYL8 (IC50)
[5] = Table VII, read-out: PP2C Dose Curves PYL9 (IC50)
[6] = Table XII-B, calculated from dose curves, read-out: PP2C Activity (IC50 in uM) PYL11
[7] = Table XII-B, calculated from dose curves, read-out: PP2C Activity (IC50 in uM) PYL4
[8] = Table XII-B, calculated from dose curves, read-out: PP2C Activity (IC50 in uM) PYL5
[9] = Table XII-B, calculated from dose curves, read-out: PP2C Activity (IC50 in uM) PYL6
[10] = Table XII-B, calculated from dose curves, read-out: PP2C Activity (IC50 in uM) PYL8
[11] = Table XII-B, calculated from dose curves, read-out: PP2C Activity (IC50 in uM) PYL9

Structure (SMILES) | remaining activity at 50 µM (PYL11) [%] | IC50 (PYL11; [6]) [µM] | remaining activity at 50 µM (PYL4) [%] | IC50 (PYL4; [7]) [µM] | remaining activity at 50 µM (PYL5) [%] | IC50 (PYL5; [8]) [µM] | remaining activity at 50 µM (PYL6) [%] | IC50 (PYL6; [9]) [µM] | remaining activity at 50 µM (PYL8) [%] | IC50 (PYL8; [10]) [µM] | remaining activity at 50 µM (PYL9) [%] | IC50 (PYL9; [11]) [µM] | further results
N#Cc1ccc(CS(=O)(=O)NC(=O)C2(c3cccc(C#N)c3)CC2)cc1 [Compound 50] |  |  |  |  |  |  |  |  |  |  |  |  | IC50 (PYL11; [1]): 2.52 µM; IC50 (PYL4; Table VII, read-out: PP2C Dose Curves PYL4 (IC50)): > 50 µM; remaining activity at 25 µM (PYL4): 67%; IC50 (PYL5; [2]): 0.39 µM; remaining activity at 25 µM (PYL5): 7%; PYL5 agonist potency and selectivity (PYL5; compounds with cyclopropyl rings at alpha carbon): potent and relatively selective PYL5 agonists; IC50 (PYL6; [3]): 2.43 µM; IC50 (PYL8; [4]): 8.39 µM; remaining activity at 25 µM (PYL8): 36%; IC50 (PYL9; [5]): 5.76 µM; remaining activity at 25 µM (PYL9): 18%
N#Cc1ccc(CS(=O)(=O)NC(=O)C2(c3ccc(F)cc3)CCCCC2)cc1 [Compound 51] |  |  |  |  |  |  |  |  |  |  |  |  | IC50 (PYL11; [1]): 5.33 µM; remaining activity at 25 µM (PYL4): 93%; IC50 (PYL5; [2]): > 50 µM; remaining activity at 25 µM (PYL5): 97%; IC50 (PYL6; [3]): > 50 µM; IC50 (PYL8; [4]): 1.11 µM; remaining activity at 25 µM (PYL8): 16%; IC50 (PYL9; [5]): 0.04 µM; remaining activity at 25 µM (PYL9): 8%; PYL9 agonist potency and selectivity (PYL9; five- and six-membered rings at alpha carbon): potent and relatively selective PYL9 agonists
O=C(NS(=O)(=O)Cc1ccc([N+](=O)[O-])cc1)C1(c2ccccc2)CCCCC1 [Compound 63] | 92.6 | > 50 | 103 | > 50 | 107 | > 50 | 108 | > 50 | 96.6 | > 50 | 75.5 | > 50 | 
O=C(NS(=O)(=O)Cc1ccc(F)cc1)C1(c2ccccc2)CCCCC1 [Compound 64] | 97.5 | > 50 | 105 | > 50 | 103 | > 50 | 109 | > 50 | 101 | > 50 | 91.1 | > 50 | 
CC(C)COC(=O)NS(=O)(=O)Cc1ccc(C#N)cc1 [Compound 65, 2-Methylpropyl N-[(4-cyanophenyl)methanesulfonyl]carbamate] | 42.1 |  | 95.5 | > 50 | 23.6 | 14.2 | 58.9 | > 50 | 35.8 | 20.4 | 18.6 | 6.5 | 
CC1CCC(C(=O)NS(=O)(=O)Cc2ccc(C#N)cc2)(c2ccc(F)cc2)CC1 (stereo not drawn) [Compound 67, N-[(4-Cyanophenyl)methanesulfonyl]-1-(4-fluorophenyl)-4-methylcyclohexane-1-carboxamide] | 14.7 | 3.13 | 91.9 | > 50 | 43 | 25.3 | 46.6 |  | 25.8 | 9.6 | 8 | 2.13 | 
CC1(C)CCC(C(=O)NS(=O)(=O)Cc2ccc(C#N)cc2)(c2ccc(F)cc2)CC1 [Compound 68, N-[(4-Cyanophenyl)methanesulfonyl]-1-(4-fluorophenyl)-4,4-dimethylcyclohexane-1-carboxamide] | 16.2 | 2.22 | 94 | > 50 | 103 | > 50 | 46.6 |  | 57.5 | > 50 | 22.6 | 17.7 | 
N#Cc1ccc(CS(=O)(=O)NC(=O)C2(c3ccccc3)CCCCC2)cc1 [Compound 69, N-[(4-Cyanophenyl)methanesulfonyl]-1-phenylcyclohexane-1-carboxamide] | 13.5 | 2.53 | 95 | > 50 | 119 | > 50 | 72.6 | > 50 | 14.7 | 0.75 | 5.8 | 0.135 | 
N#Cc1ccc(CS(=O)(=O)NC(=O)C(c2ccccc2)c2ccccc2)cc1 [Compound 71, N-[(4-Cyanophenyl)methanesulfonyl]-2,2-diphenylacetamide] | 43.2 | 25 | 93.2 | > 50 | 102 | > 50 | 96.9 | > 50 | 96.8 | > 50 | 81.8 | > 50 | 
N#Cc1ccc(CS(=O)(=O)NC(=O)C(c2ccc(F)cc2)c2ccc(F)cc2)cc1 [Compound 72, N-[(4-Cyanophenyl)methanesulfonyl]-2,2-bis(4-fluorophenyl)acetamide] | 37.4 | 25 | 90.1 | > 50 | 102 | > 50 | 95.1 | > 50 | 98.5 | > 50 | 85.8 | > 50 | 
N#Cc1ccc(CS(=O)(=O)NC(=O)C(C2CCCCC2)C2CCCCC2)cc1 [Compound 73, N-[(4-Cyanophenyl)methanesulfonyl]-2,2-cyclohexylacetamide] | 26.9 | 22.4 | 98.2 | > 50 | 110 | > 50 | 91 | > 50 | 66.1 | > 50 | 56.3 | > 50 | 
